Data: ChEMBL document CHEMBL1142884, “Inhibition of horseradish peroxidase catalytic activity by new 3-phenylcoumarin derivatives: synthesis and structure-activity relationships” (Bioorg Med Chem, 2007)
pIC50: −log10 of the molar value.

Columns and labels:
[1] = DPPH radical scavenging activity; assay type: functional
[2] = Inhibition of horseradish peroxidase catalytic activity by luminol-enhanced chemiluminescence assay; parameters: species or system Armoracia rusticana

| SMILES | pIC50 [1] | pIC50 [2] |
| --- | --- | --- |
| O=c1oc2cc(O)c(O)cc2cc1-c1ccc2c(c1)OCO2 | 4.88 | 5.47 |
| O=c1oc2ccc(O)cc2cc1-c1ccccc1O | 4.60 | 4.61 |
| CC(=O)Oc1ccc(-c2cc3cc(OC(C)=O)c(OC(C)=O)cc3oc2=O)cc1OC(C)=O |  | 4.55 |

These reach a higher pIC50 [2]. Values come first.

| pIC50 [1] | pIC50 [2] | SMILES |
| --- | --- | --- |
| 5.01 | 5.92 | O=c1oc2cc(O)c(O)cc2cc1-c1ccc(O)c(O)c1 |
| 4.57 | 5.55 | O=c1oc2ccc(O)cc2cc1-c1ccc(O)c(O)c1 |
